Earlier results in patent US20240050950A1, “GRADIENT-BASED MICROFLUIDIC CIRCUIT, DEVICE, AND METHOD FOR PERFORMING AN ASSAY” (priority 2020, published 2024).
Structures can show the parent of a compound that is named as a salt. Bridge positions count the residues as written; N and C are the ends. Square brackets hold non-standard residues; d marks the D form. Peptide text beside a SMILES is read from it. * marks the point of attachment. Ileψ(thiazoline)Cys = CC[C@H](C)[C@H](N)C1=N[C@H](C(=O)*)CS1; dOrn = NCCC[C@@H](N)C(=O)O

Details: Table 1, antimicrobial agents/drugs; cited from earlier work

Row | SMILES | Molar volume [cm^3]
1 | COC[C@@H](C[C@H]1O[C@@](O)([C@H](O)[C@@H]2C[C@H](OC)[C@@H](O)CC/C=C(C)/C=C/[C@@H](O[C@@H]3O[C@@H](C)[C@H](OC)[C@@H](O)[C@@H]3O)[C@H](C)/C=C(C)/C=C(C)/C=C(\C)C(=O)O2)[C@H](C)[C@@H](O)[C@H]1C)OC1C[C@](C)(O)[C@@H](O[C@H]2C[C@@H](OC)[C@H](O)[C@@H](C)O2)[C@H](C)O1 (stereo partly drawn) [Apoptolidin (FU 40A), Apoptolidin] | 898.5 ± 5.0
2 | CN[C@@H]1[C@@H](O[C@H]2O[C@H](CO)[C@@H](N)[C@H](O)[C@H]2O)OC2C[C@@H](N)[C@@H](O[C@H]3[C@H](O)[C@@H](O)[C@H](N)C[C@@H]3N)OC2[C@@H]1O (stereo partly drawn) [Apramycin (Nebramycin II), Apramycin] | 344.4 ± 5.0
3 | CC(/C=C/[C@@]1(C)[C@H](C)CCC(=O)[C@@H]1C)=C\Cc1c(O)c(Cl)c(C)c(C=O)c1O [Ascochlorin (Ilicicolin D, NSC 287492), Ascochlorin] | 337.6 ± 3.0
4 | CC[C@@H]1/C=C(\C)C[C@H](C)C[C@H](OC)[C@H]2O[C@@](O)(C(=O)C(=O)N3CCCC[C@H]3C(=O)O[C@H](/C(C)=C/[C@@H]3CC[C@@H](O)[C@H](OC)C3)[C@H](C)[C@@H](O)CC1=O)[C@H](C)C[C@@H]2OC [Ascomycin (KD4185000), Ascomycin] | 661.8 ± 5.0
5 | CC[C@H]1OC(=O)[C@H](C)[C@@H](O[C@H]2C[C@@](C)(OC)[C@@H](O)[C@H](C)O2)[C@H](C)[C@@H](O[C@@H]2O[C@H](C)C[C@H](N(C)C)[C@H]2O)[C@](C)(O)C[C@@H](C)CN(C)[C@H](C)[C@@H](O)[C@]1(C)O [Azithromycin] | 632.6 ± 5.0
6 | CC[C@H](C)[C@H](N)C1=N[C@H](C(=O)N[C@@H](CC(C)C)C(=O)N[C@H](CCC(=O)O)C(=O)N[C@H](C(=O)N[C@H]2CCCCNC(=O)[C@H](CC(N)=O)NC(=O)[C@@H](CC(=O)O)NC(=O)[C@H](Cc3cnc[nH]3)NC(=O)[C@@H](Cc3ccccc3)NC(=O)[C@H]([C@@H](C)CC)NC(=O)[C@@H](CCCN)NC2=O)[C@@H](C)CC)CS1 [Bacitracin] ({Ileψ(thiazoline)Cys}-L[dE]IK[dOrn]I[dF]H[dD]N; lactam 4-C) | 994.4 ± 7.0
7 | CO/C1=C\C(C)=C\[C@@H](C)[C@@H](O)[C@@H](C)C/C(C)=C/C=C/[C@H](OC)[C@@H]([C@@H](C)[C@@H](O)[C@H](C)[C@@]2(O)C[C@@H](O)[C@H](C)[C@@H](C(C)C)O2)OC1=O [Bafilomycin A1 (4730700), Bafilomycin A1] | 552.3 ± 5.0
8 | CO/C1=C\C(C)=C\[C@@H](C)[C@@H](O)[C@@H](C)C/C(C)=C/C=C/[C@H](OC)[C@@H]([C@@H](C)[C@@H](O)[C@H](C)[C@@]2(O)C[C@@H](OC(=O)/C=C/C(=O)NC3=C(O)CCC3=O)[C@H](C)[C@@H](C(C)C)O2)OC1=O [Bafilomycin B1] | 667.1 ± 5.0
9 | CC(C)C[C@H](NC(=O)[C@@H](O)[C@H](N)Cc1ccccc1)C(=O)O [Bestatin (Ubenimex), Bestatin] | 257.5 ± 3.0
10 | Oc1c(Cl)cc(Cl)cc1Sc1cc(Cl)cc(Cl)c1O [Bithionol] | 202.7 ± 5.0
11 | CN(CC[C@H](N)CC(=O)N[C@H]1C=C[C@H](n2ccc(N)nc2=O)O[C@@H]1C(=O)O)C(=N)N [Blasticidine (Blasticidin S), Blasticidin S] | 261.9 ± 7.0
12 | C[C@@H]1C[C@H](C)C[C@H](C)[C@@H](O)CC(=O)O[C@H]([C@@H]2CCC[C@H]2C(=O)O)C/C=C/C=C(/C#N)[C@H](O)[C@@H](C)C1 [Borrelidin] | 426.5 ± 5.0
13 | C[C@H]1CCC/C=C/[C@@H]2C[C@H](O)C[C@H]2[C@H](O)/C=C/C(=O)O1 [Brefeldin A] | 252.9 ± 3.0
14 | COc1cc(/C=N/O)nc(-c2ccccn2)c1 [Caerulomycin A] | 185.8 ± 7.0
15 | N[C@@H](C(=O)N[C@@H]1C(=O)N2C(C(=O)O)=C(Cl)CS[C@H]12)c1ccccc1 [Cefaclor] | 226.4 ± 5.0
16 | CC1=C(C(=O)O)N2C(=O)[C@@H](NC(=O)[C@H](N)c3ccccc3)[C@H]2SC1 [Cefalexin] | 231.3 ± 5.0
17 | CO[C@@]1(NC(=O)CSCC#N)C(=O)N2C(C(=O)O)=C(CSc3nnnn3C)CS[C@@H]21 [Cefmetazole] | 268.3 ± 7.0
18 | NC(=O)c1cc[n+](CC2=C(C(=O)O)N3C(=O)[C@@H](NC(=O)[C@@H](c4ccccc4)S(=O)(=O)[O-])[C@H]3SC2)cc1 [Cefsulodin (Ulfaret), Cefsulodin] | 316.5 ± 7.0
19 | CC(C)(O/N=C(\C(=O)N[C@@H]1C(=O)N2C(C(=O)[O-])=C(C[n+]3ccccc3)CS[C@H]12)c1csc(N)n1)C(=O)O [Ceftazidime] | 330.2 ± 7.0
20 | CO/N=C(\C(=O)N[C@@H]1C(=O)N2C(C(=O)O)=C(CSc3nc(=O)c(=O)[nH]n3C)CS[C@H]12)c1csc(N)n1 [Ceftriaxone] | 281.7 ± 7.0
21 | C/C=C(\C)C(=O)N[C@@H](c1ccccc1)[C@@H](O)C(=O)O[C@H]1C[C@@]2(O)[C@@H](OC(=O)c3ccccc3)[C@@H]3[C@]4(OC(C)=O)CO[C@@H]4C[C@H](O)[C@@]3(C)C(=O)[C@H](OC(C)=O)C(=C1C)C2(C)C [Cephalomannine (NSC 318735), Cephalomannine] | 609.9 ± 5.0
22 | CC(=O)OCC1=C(C(=O)O)N2C(=O)[C@@H](NC(=O)Cc3cccs3)[C@H]2SC1 [Cephalothin (Cefalotin), Cephalothin] | 252.7 ± 5.0
23 | CC1=C(C(=O)O)N2C(=O)[C@@H](NC(=O)[C@H](N)C3=CCC=CC3)[C@H]2SC1 [Cephradine (Cefradine), Cephradine] | 237.2 ± 5.0
24 | C/C=C/C/C=C/CCC(=O)[C@H]1O[C@H]1C(N)=O [Cerulenin] | 196.7 ± 3.0
25 | [H]/N=C(\N/C(=N/[H])NCCCCCCNC(=N)NC(=N)Nc1ccc(Cl)cc1)Nc1ccc(Cl)cc1 [Chlorhexidine] | 363.3 ± 7.0
26 | CO[C@@H]1[C@H](O)C[C@@H](O[C@@H]2C[C@H](Oc3cc4cc5c(c(O)c4c(O)c3C)C(=O)[C@@H](O[C@H]3C[C@@H](O[C@H]4C[C@@H](O[C@H]6C[C@](C)(O)[C@@H](OC(C)=O)[C@H](C)O6)[C@H](O)[C@@H](C)O4)[C@H](O)[C@@H](C)O3)[C@H]([C@H](OC)C(=O)[C@@H](O)[C@@H](C)O)C5)O[C@H](C)[C@@H]2OC(C)=O)O[C@@H]1C [Chromomycin A3] | 827.2 ± 5.0
27 | C=Cc1cc(OC)c2c(c1)c(=O)oc1c2cc(OC)c2c(O)ccc([C@H]3O[C@@H](C)[C@@H](O)[C@](C)(O)[C@@H]3O)c21 [Chrysomycin A (MFCD07370133), Chrysomycin A] | 361.7 ± 3.0

Same assay, conditions: Table 2, anticancer drugs; cited from earlier work

Row | SMILES | Molar volume [cm^3]
28 | C[C@@H](O[C@H]1OCCN(Cc2n[nH]c(=O)[nH]2)[C@H]1c1ccc(F)cc1)c1cc(C(F)(F)F)cc(C(F)(F)F)c1 [Aprepitant] | 353.5 ± 7.0
29 | C=C1C[C@@H]2[C@H](CC[C@]3(C)C(=O)CC[C@@H]23)[C@@]2(C)C=CC(=O)C=C12 [Aromasin (Exemestane), Exemestane] | 260.5 ± 5.0
30 | COc1nc(N)nc2c1ncn2[C@@H]1O[C@H](CO)[C@@H](O)[C@@H]1O [Arranon (Nelarabine), Nelarabine] | 149.8 ± 7.0
31 | N=C(N)NCc1cccc([131I])c1 [Azedra] | 148.6 ± 7.0
32 | O=C(/C=C/c1cccc(S(=O)(=O)Nc2ccccc2)c1)NO [Beleodaq (Belinostat), Belinostat] | 222.9 ± 3.0
33 | C=C(c1ccc(C(=O)O)cc1)c1cc2c(cc1C)C(C)(C)CCC2(C)C [Bexarotene (Targretin), Bexarotene] | 334.2 ± 3.0
34 | Cn1cnc2c(F)c(Nc3ccc(Br)cc3F)c(C(=O)NOCCO)cc21 [Binimetinib] | 264.1 ± 7.0
35 | CC(C)C[C@H](NC(=O)[C@H](Cc1ccccc1)NC(=O)c1cnccn1)B(O)O [Bortezomib (Velcade), Bortezomib] | 316.5 ± 3.0
36 | COC(=O)N[C@@H](C)CNc1nccc(-c2cn(C(C)C)nc2-c2cc(Cl)cc(NS(C)(=O)=O)c2F)n1 [Braftovi (Encorafenib), Encorafenib] | 371.6 ± 7.0
37 | CS(=O)(=O)OCCCCOS(C)(=O)=O [Busulfan] | 182.3 ± 3.0
38 | CO[C@H]1C(=O)[C@]2(C)[C@@H](OC)C[C@H]3OC[C@@]3(OC(C)=O)[C@H]2[C@H](OC(=O)c2ccccc2)[C@]2(O)C[C@H](OC(=O)[C@H](O)[C@@H](NC(=O)OC(C)(C)C)c3ccccc3)C(C)=C1C2(C)C [Cabazitaxel] | 635.1 ± 5.0
39 | CCCCCOC(=O)Nc1nc(=O)n([C@@H]2O[C@H](C)[C@@H](O)[C@H]2O)cc1F [Capecitabine (Xeloda), Capecitabine] | 240.5 ± 7.0
40 | O=c1[nH]cc(F)c(=O)[nH]1 [Carac (Fluorouracil-Topical, Tolak), Fluorouracil] | 84.5 ± 5.0
41 | CC(C)C[C@H](NC(=O)[C@H](CCc1ccccc1)NC(=O)CN1CCOCC1)C(=O)N[C@@H](Cc1ccccc1)C(=O)N[C@@H](CC(C)C)C(=O)[C@@]1(C)CO1 [Carfilzomib (Kyprolis), Carfilzomib] | 619.5 ± 3.0
42 | Cc1cc(Nc2ncc(Cl)c(Nc3ccccc3S(=O)(=O)C(C)C)n2)c(OC(C)C)cc1C1CCNCC1 [Ceritinib (Zykadia), Ceritinib] | 445.9 ± 3.0
43 | COc1cccc2c1C(=O)c1c(O)c3c(c(O)c1C2=O)C[C@@](O)(C(C)=O)C[C@@H]3O[C@H]1C[C@H](N)[C@H](O)[C@H](C)O1 [Cerubidine (Daunorubicin Hydrochloride), Daunorubicin Hydrochloride] | 339.4 ± 5.0
44 | O=C(O)CCCc1ccc(N(CCCl)CCCl)cc1 [Chlorambucil] | 243.6 ± 3.0

Same assay, conditions: Table 3, antifungal drugs and other molecules; cited from earlier work

Row | SMILES | Molar volume [cm^3]
45 | CC[C@H](C)C[C@H](C)CCCCCCCCC(=O)N[C@H]1C[C@@H](O)[C@@H](NCCN)NC(=O)[C@@H]2[C@@H](O)CCN2C(=O)[C@H]([C@H](O)CCN)NC(=O)[C@H]([C@H](O)[C@@H](O)c2ccc(O)cc2)NC(=O)[C@@H]2C[C@@H](O)CN2C(=O)[C@H]([C@@H](C)O)NC1=O [Caspofungin] | 803.3
